Laboratory results as given in patent publication US20170119660A1, “PHARMACEUTICAL COMPOSITIONS FOR TRANSMUCOSAL DELIVERY” (Solubest Ltd, priority 2015, published 2017).

Legend:
[1] = Dissolution test of cannabidiol compositions in FaSSIF; format: physicochemical; design: unit not given here; conditions: 200 ml FaSSIF, drug loading 20 mg
Description: (§1) The liquid intermediates, containing the active compound(s) and the polymers, were prepared using different size glassware, magnetic plates, peristaltic pump and tubing. The spray-drying process was conducted using Mini Spray Dryer B-290 of Buchi Labortechnik AG. Tablet compression was performed with a Mini 8-D tablet press Dynamic Exim Co. Ltd. Granules preparation was performed with Dynamic Exim dry granulator. The dissolution test was performed in accordance with USP Dissolution Method <711> and FDA Dissolution Methods for Drug Products using the paddle apparatus Pharma Test model DT70 equipped with 1L and 250 ml vessels. The quantification was performed using HPLC, Dionex. Appropriate amount of prepared granules or tablets as well as control powders or tablets were dissolved in 250 ml of artificial saliva, at 37° C., with rotation speed of 75 rpm. Simulated saliva solution was prepared according to SS5 solution recipe reported in Marques et al, 2011, Dissolution Technologies, 18, 15-28. The tablets disintegration test was performed in accordance with USP Disintegration Method <701>.
Unformulated cannabidiol (CBD) and composition of the present invention (Example 13) were subjected to a dissolution test in 200 ml of Fasted State Simulating Intestinal Fluid (FaSSIF). The drug loading was 20 mg.

[2] = Dissolution test of powders and granules in simulated saliva; format: physicochemical; conditions: drug loading 10 mg/ml
Description: as §1, with “The dissolution test was performed in accordance with USP Dissolution Method <711> and FDA Dissolution Methods for Drug Products using the paddle apparatus Pharma Test model DT70 equipped with 1L and 250 ml vessels.” left out, “<701>. […] The drug loading in the first set of experiments was 2.5 mg/ml.” for “<701>.”

EpiOral™ buccal tissues = assay: Franz diffusion cell permeability through human buccal tissue; format: in vitro ADME; conditions: 7.5 mg/ml in artificial saliva
Description: Permeability studies were performed as follows. The barrier membranes, EpiOral™ representing a highly differentiated, three-dimensional, cultured human buccal tissue equivalent were obtained from MatTek Corp (Ashland, Mass.). Samples were mounted in vertical Franz diffusion cells (PermeGear Inc., Bethlehem, Pa.). […] The fluid in each receptor compartment was maintained at 37±0.5° C. by using a thermostatic water pump (Freed Electric, Haifa, Israel) that circulated water through the jacket surrounding each main chamber. The biological membranes were initially left in the Franz cells for 1 h in order to facilitate their hydration before the experiment. After this period, a 500-μL aliquot of 7.5 mg/ml sumatriptan solution/dispersion in artificial saliva was deposited in each donor compartment. The donor compartment was covered with Parafilm® to prevent evaporation. Receptor solution samples of 300 μL were then collected at 3, 6, 9, 12, 20, 40 and 60 minutes and replaced with 300 μL phosphate buffer, placed on ice and stored at −20° C. until subjected to HPLC or LCMS analysis. Each permeation experiment was conducted as four replicate runs.
The permeability of unformulated sumatriptan base, of API (in the base form) released from the composition of the present invention (Example 3) and of the commercial formulation Imitrex® was tested using EpiOral™ buccal tissues as described in the Methods section. EpiOral™ buccal tissues consist of normal, human-derived epithelial cells that have been cultured to form multilayered, highly differentiated models of the human buccal phenotypes.

| Drug released ([2]; 5 min) [%] | Drug released ([2]; 10 min) [%] | Drug released ([2]; 20 min) [%] | STP Permeability (EpiOral™ buccal tissues; time point 0 min) [μg/cm^2] | STP Permeability (EpiOral™ buccal tissues; time point 3 min) [μg/cm^2] | STP Permeability (EpiOral™ buccal tissues; time point 6 min) [μg/cm^2] | STP Permeability (EpiOral™ buccal tissues; time point 9 min) [μg/cm^2] | STP Permeability (EpiOral™ buccal tissues; time point 12 min) [μg/cm^2] | STP Permeability (EpiOral™ buccal tissues; time point 20 min) [μg/cm^2] | STP Permeability (EpiOral™ buccal tissues; time point 40 min) [μg/cm^2] | STP Permeability (EpiOral™ buccal tissues; time point 60 min) [μg/cm^2] | Structure (SMILES) | Dissolution profile ([1]; Time 0) | Dissolution profile ([1]; Time 10) | Dissolution profile ([1]; Time 20) | Dissolution profile ([1]; Time 30) | Dissolution profile ([1]; Time 45) | Dissolution profile ([1]; Time 60) | Dissolution profile ([1]; Time 90) |
| --- | --- | --- | --- | --- | --- | --- | --- | --- | --- | --- | --- | --- | --- | --- | --- | --- | --- | --- |
|  |  |  |  |  |  |  |  |  |  |  | C=C(C)[C@@H]1CCC(C)=C[C@H]1c1c(O)cc(CCCCC)cc1O [Unformulated CBD, Cannabidiol] | 0 | 1.7 | 2.7 | 3.8 | 5.2 | 6.3 | 8.2 |
| 13 | 13 | 13 | 0.000 | 0.330 | 0.736 | 0.964 | 1.295 | 2.671 | 6.938 | 14.887 | CNS(=O)(=O)Cc1ccc2[nH]cc(CCN(C)C)c2c1 [Unformulated sumatriptan, Sumatriptan base] |  |  |  |  |  |  |  |
